From patent publication US20040208782A1, “Composition and process for chemical and thermal disinfection” (priority 2003, published 2004)
Where “and” joins values, the source holds several entries; their conditions need not be identical. Equal values may be shown once.

Tests used:
[1] = Stoppered cylinder foam test (Test 3); type: physicochemical; conditions: 0.1% by weight aqueous solution, room temperature
Experimental: The test is used for qualitative assessment of the foaming behaviour of solutions.
The solution to be tested is introduced, avoiding foaming as far as possible, up to the 30 ml mark in a 100 ml measuring cylinder (graduated). It is advisable to hold the cylinder at an angle and allow the solution to run slowly down the wall of the mixing cylinder. The stopper is then inserted.
If foam has nevertheless formed when introducing the solution, the test is not carried out until the foam has completely disappeared. The stoppered cylinder is shaken vigorously 10×, and the stopclock is started. The total volume of solution and foam is then read off in ml after previously specified times.
Test 3 at Room Temperature

Solubility in water = type: physicochemical
[2] = system: Mycobacterium terrae (ATCC15755); experiment: Mycobacterium terrae quantitative suspension test (Test 2), reduction factors; type: cell-based; conditions: for activity for Mycobacterium terrae (in words): 0.1% by weight; for reduction factor: Example 4, 0.1% by weight
[3] = system: bacteria, fungi and mycobacteria; experiment: Quantitative suspension test, overall spectrum of activity (result statements); type: cell-based; conditions: 0.1% by weight

Row | SMILES | foaming behaviour (in words) [1] | solubility in water (Solubility in water) | activity for Mycobacterium terrae (in words) ([2]; 50° C.) | activity for Mycobacterium terrae (in words) ([2]; room temperature, only at 60 minutes in 30% by weight ethanol solution) | activity (in words) ([2]; 0.1% strength or 0.05% strength aqueous solution, elevated temperature (e.g. 60° C.)) | reduction factor ([2]; 50° C., action for 15′) | reduction factor ([2]; 50° C., action for 30′) | reduction factor ([2]; 50° C., action for 60′) | activity on Mycobacterium terrae (in words) ([2]; above room temperature, alkaline range) | antimicrobial activity (in words) ([3]; 50° C., gram-positive and gram-negative bacteria, yeasts and mycobacteria) | antimicrobial activity (in words) ([3]; low temperature)
1 | CCCCCCCCOCC(O)CO (stereo not shown) [1-(n-octyl)glycerol ether] | pronounced foaming | < 0.2 % by weight and > 0.1 % by weight |  |  |  |  |  |  |  |  | 
2 | CCCCC(CC)COCC(O)CO (stereo not shown) [SC 50, 1-(2-Ethylhexyl)glycerol ether] | virtually no foam | 0.18 % by weight | active | good activity | excellent activity | 4.80 | 4.66 | 5.52 | excellent activity | broad activity | virtually no antimicrobial activity
